Data reported in patent US10709724B2, “Methods of treating mitochondrial dysfunction” (Ecole Polytechnique Federale de Lausanne (EPFL), priority 2011, dated 2020).

Legend:
PDK4 and UCP-3 promoters = experiment: ChIP of PGC-1α promoter occupancy in C2C12 myotubes; assay type: cell-based; conditions: 1 μM, 48 h
Protocol: Chromatin Immunoprecipitation (ChIP). ChIP was performed according to (Bai et al., 2007). FLAG-HA-PGC-1 (Rodgers et al., 2005) was introduced by adenoviral transfer into C2C12 myotubes after 48 h of differentiation and cells were cultured for an additional 2 days. […] Thereafter ChIP was performed using anti-FLAG (Sigma) and anti-TNF-R1 (Santa Cruz) as described (Bai et al., 2007). Pelleted DNA was quantified by qPCR using the primers against PDK4 and UCP-3 promoters flanking the nuclear receptor site (Table 3 and 6). The results were normalized for the signal of the respective inputs (vehicle/PJ34-treated) and were expressed as a percentage. The signal of anti-TNF-R1 (non-specific antibody) was subtracted from the anti-FLAG signal (specific) and the specific signal was plotted. Primers for ChIP are summarized in Supplementary Table 3 and 6.

C57Bl/6J mice [1] = experiment: NAD+ content in mouse tissues after one week of supplemented chow; assay type: in vivo; conditions: 400 mg/kg/day in chow
Protocol: Animal Experiments. […] In other animal experiments, 8 weeks-old male C57Bl/6J mice were purchased from Charles River and powder chow (D12450B) and high fat (D12492) diets were from Research Diets Inc (New Brunswick, N.J., USA). 80 ml of water per kg of powder CD were used to make food pellets. 40 ml of water per kg of powder HFD were used to make food pellets. […] Mice were housed separately, had ad libitum access to water and food and were kept under a 12 h dark-light cycle. Mice were fed with homemade pellets from 10 weeks of age. […] All animal experiments were carried out according to local national and EU ethical guidelines. To monitor body weight, mice were weighed and the food consumption was measured each week on the same day. In case of PJ34 treatment, mice received each 12 h (at 7:00 and 19:00) 10 mg/kg PJ34 by intraperitoneal injection for 5 continuous days. In all studies animals were killed (at 14:00) either after CO2 inhalation or cervical dislocation after 6 h of fasting (starting at 8:00), and tissues were collected and processed as specified below. […] Plasma insulin and was determined in heparinized plasma samples using specific ELISA kits (Mercodia). Blood samples were collected in heparinized tubes and plasma was isolated after centrifugation. Plasma parameters were measured using a Cobas c111 (Roche Diagnostics). […] The respiratory quotient was the ratio of CO2 production over O2 consumption. During actimetry, beamline crossings were summarized each 15 minutes.
NAD^+ NAM Determination. NAD^+ levels in cultured cells were determined using a commercial kit (Enzychrom™, BioAssays Systems, CA). […] 70 L of ice-cold 7% perchloric acid was then added and the sample was vortexed and sonicated three times, then centrifuged. Clear supernatant was removed and neutralized by additions of 3 M NaOH and 1 M phosphate buffer (pH=9), then centrifuged. Clear supernatant was injected onto HPLC C-18 column with 20 mM ammonium acetate eluent to separate NAD^+ and NAM from other cellular components, NAD^+ and NAM peaks (260 nm absorbance) were collected. Collections were lyophilized to dryness and subjected to MALDI-TOF analysis. […] Corrections were applied for isotopic abundance.

C57Bl/6J mice [2] = experiment: Sirtuin activity and mitochondrial biogenesis in tissues after chronic NR feeding; assay type: in vivo
Protocol: mRNA and mtDNA Analysis. Total RNA was prepared using TRIzol (Invitrogen) according to the manufacturer's instructions. RNA was treated with DNase, and 2 μg of RNA was used for reverse transcription (RT). cDNA was purified on QIAquick PCR cleanup columns (Qiagen, Valencia, Calif., USA). 50× diluted cDNA was used for RT-quantitative PCR (RT-VCR) VCR) reactions (Bai et al., 2007). The RT-qPCR reactions were performed using the Light-Cycler system (Roche Applied Science) and a qPCR Supermix (Qiagen) with the primers for mice summarized in Table 1 and 4, and with the primers for worms summarized on Table 7. mtDNA quantification was performed as described (Lagouge et al., 2006) with the primers indicated in Table 2 and 5.
Immunoprecipitation, SDS-PAGE, Western Blotting. Cells were lysed in lysis buffer (50 mM Tris, […], EDTA 1 mM, NP40 1%, nicotinamide 5 mM, Na-butyrate 1 in M, protease inhibitors pH7.4). Proteins were separated by SDS-PAGE and transferred onto nitrocellulose membranes. The origin of the primary and secondary antibodies used can be found as supplemental experimental procedures. Reactions were developed by enhanced chemiluminescence (Amersham, Little Chalfont, UK), PGC-1α, FOXO1 and Ndufa9 acetylation levels were analyzed by immunoprecipitation from cellular or nuclear lysates of tissues with anti-PGC-1α (Millipore), anti-FOXO1 (Cell Signaling, Danvers, Mass., USA) and anti-Ndufa9 (Abcam) antibody followed by Western blot using an acetyl-lysine antibody (Cell Signaling) that was normalized to total PGC-1a/FOXO1/Ndufa9 levels (Lagouge et al., 2006; Rodgers et al., 2005). In HEK293T cells HA-tagged PGC-1α was overexpressed and was immunoprecipitated using an anti-HA. In C2C12 myotubes, FLAG-HA tagged PGC-1α was introduced through adenoviral delivery 2 days before treatments, then IP was performed using anti-FLAG antibody and samples were processed as described. All blots were quantified by densitometry using ImageJ software. Poly(ADP-Ribose) detection was performed as previously described with slight modifications (Bai et al., PARP-1 inhibition increases mitochondrial metabolism through SIRT1 activation. Cell Metab 13, 461-468. (2011)) Briefly, PAR was detected by using a monoclonal anti-PAR antibody (Alexis, Lausanne Switzerland) by Western blotting of total protein lysates, using either […] of total worm protein lysates, […] of liver protein lysate or 200 g of muscle total protein extracts. PGC-1 acetylation was determined using PGC-1 immunoprecipitates from 2 mg of protein extracts, as described in Canto et al. (Canto et al., AMPK regulates energy expenditure by modulating NAD+ metabolism and SIRT1 activity. Nature 458, 1056 (2009)).
Mitochondrial DNA Measurement The assay was performed as described (Lagouge et al., 2006). DNA. was extracted using the standard proteinase K digestion following phenol-chloroform extraction. Mitochondrial and genomic DNA was determined using specific primers in qPCR reactions (primers summarized in Table 2 and 5.) and was expressed as percentage of WT.
Determination of Protein Acetylation Status PGC-1α, FOXO1 and Ndufa9 acetylation was analyzed by immunoprecipitation of PGC-1, FOXO1 and Nduf9a from nuclear lysates of tissues with anti-PGC-1α (Millipore), anti-FOXO1 (1 mg, Cell Signaling, Danvers, Mass., USA), or Ndufa9 (Abeam) antibody followed by Western blot using an acetyl-lysine antibody (Cell Signaling) that was normalized to total PGC-1α/FOXO1/Ndufa9 (Canto et al., 2009). Tribulin acetylation was assessed by Western blotting of total protein samples by acetylated tubulin-specific antibody (Sigma) that was then normalized for total tubrilin (Santa Cruz).

**Q.** With `CN(C)CC(=O)Nc1ccc2[nH]c(=O)c3ccccc3c2c1` [PJ34] as the molecule, how does the “PGC-1 binding to the UCP3 promoter” value (PDK4 and UCP-3 promoters) read?
**A.** not regulated through the binding of PGC-1 to its promoter

**Q.** What about the “PGC-1α recruitment to the PDK4 promoter” value (PDK4 and UCP-3 promoters) of the same molecule?
**A.** increased PGC-1α recruitment to target-genes

**Q.** What does the source list for `NC(=O)c1ccc[n+]([C@@H]2O[C@H](CO)[C@@H](O)[C@H]2O)c1` [NR, nicotinamide riboside]?
**A.** NAD+ levels in liver (C57Bl/6J mice [1]): increased NAD^+ levels in liver; mitochondrial NAD+ levels in mouse liver (C57Bl/6J mice [1]): mitochondrial NAD^+ levels were enhanced; muscle NAD+ content (C57Bl/6J mice [1]; quadriceps): significantly enhanced muscle NAD^+ content; expression of oxidative metabolism regulators and mitochondrial genes in quadriceps muscle (C57Bl/6J mice [2]; HFD 16 weeks): either an elevated expression or a strong tendency towards an increase; mitochondrial DNA content in muscle (C57Bl/6J mice [2]; HFD 16 weeks): increased in muscle; mitochondrial proteins (Complex V ATP synthase subunit α, porin) in muscle, liver and BAT (C57Bl/6J mice [2]; HFD 16 weeks): prominent increase in mitochondrial proteins; mitochondrial proteins in brain or WAT (C57Bl/6J mice [2]; HFD 16 weeks): such change was not observed in brain or WAT; acetylation of SIRT1 and SIRT3 targets (FOXO1, SOD2) in skeletal muscle, liver and BAT (C57Bl/6J mice [2]; HFD 16 weeks, NR 400 mg/kg/day): prominent deacetylation; acetylation status of the SIRT2 target tubulin (C57Bl/6J mice [2]; NR 400 mg/kg/day): could not detect changes
